Results published in ChEMBL document CHEMBL4610071, “Ancistrosecolines A-F, Unprecedented seco-Naphthylisoquinoline Alkaloids from the Roots of Ancistrocladus abbreviatus, with Apoptosis-Inducing Potential against HeLa Cancer Cells” (J Nat Prod, 2020).
The source made the active and inactive calls. The rule behind the calls is not given here.

Key:
Format in all cases: functional, cell-based
HeLa [1] = assay: Cytotoxicity against human HeLa cells incubated for 72 hrs by WST-8 assay
HeLa [2] = assay: Induction of morphological alteration in human HeLa cells at 50 uM measured within 3 hrs by real-time digital microscopy
HeLa [3] = assay: Inhibition of cell division in human HeLa cells at 50 uM measured within 3 hrs by real-time digital microscopy
HeLa [4] = assay: Induction of apoptosis in human HeLa cells at 50 uM measured within 24 hrs by real-time digital microscopy
HeLa [5] = assay: Induction of apoptosis in human HeLa cells at 50 uM assessed as appearance of elongated cellular morphology incubated for 72 hrs by Hoechst 33342 staining based microscopic method
HeLa [6] = assay: Induction of apoptosis in human HeLa cells at 50 uM assessed as nuclear fragmentation incubated for 72 hrs by Hoechst 33342 staining based microscopic method

Compound | Activity (HeLa [1]) | IC50 (HeLa [1]) [µM] | Activity (HeLa [2]) | inhibition (HeLa [3]) | Activity (HeLa [4]) | Activity (HeLa [5]) | Activity (HeLa [6])
COc1cc(C[C@H](C)N)cc(O)c1-c1ccc(OC)c2c(OC)cc(C)cc12 (atropisomer P) | Dose-dependent effect | 11.2 | Active | Active | Active | Active | Active
CN[C@@H](C)Cc1cc(O)c(-c2c(C)cc(OC)c3c(OC)cccc23)c(OC)c1 (atropisomer P) | – | 52.6 | – | – | – | – | –
COc1cc(C[C@H](C)N)cc(O)c1-c1c(C)cc(OC)c2c(OC)cccc12 (atropisomer P) | – | 72.4 | – | – | – | – | –
